Data from patent publication US9217014B2, “Antifungal agents and uses thereof” (Cidara Therapeutics, Inc., priority 2011, dated 2015).
Read-outs that look alike come from different tables or passages of the source.

Test system: C. albicans R303
Assay: mouse candidiasis infection model, IP administration, kidney fungal burden
Assay type: in vivo
Conditions: for log reduction at 0.5 mg/kg / log reduction at 1.5 mg/kg / log reduction at 5 mg/kg / log reduction at 4.5 mg/kg: Candida albicans, R303, ip, 24 h, read-out: Difference from 24-h control; for Mean log10 CFU/kidneys (±SEM) / Mean log10 CFU/kidneys (±SD): kidneys 24 h after infection; for overall performance in reducing C. albicans CFUs in the kidneys of the mice: conclusion over all runs; for log reduction at 5 mg/kg / Mean log10 CFU/kidneys (±SD): First run, IP 5 mg/kg; for Mean log10 CFU/kidneys (±SD): neutropenic mice
Description: The objective of these studies was to evaluate the efficacy of test compounds in the mouse candidiasis infection model. Amounts of test articles are uncorrected.
The strain, C. albicans R303 was transferred from frozen storage onto Sabauroud dextrose agar (SDA) plates and grown for ˜24 hr at 35° C. The inoculum was prepared by transferring colonies from the plate to phosphate buffered saline (PBS) and the concentration adjusted to approximately 10^6 CFU/mL with the aid of a spectrophotometer. The stock was diluted 1:9 to prepare the inoculum. Prior to each run the concentration was verified using the dilution plate count method.
Female CD-1 mice were used in this study. The animals were approximately seven-weeks-old at the start of the study and weighed about 15-30 g.
Mice were made neutropenic with IP injections of cyclophosphamide (150 mg/kg in 10 mL/kg) at 4 and 1 day before inoculation. Each animal was inoculated with the appropriate concentration by injecting 0.1 mL of inoculum into a tail vein. The test compounds were administered IP at 2 hr after infection.
In a typical procedure, the kidneys were collected from four mice in control group 1 (untreated) at 2 hr after infection, and from another four mice in control group 2 (untreated) at 24 hr after infection. Kidneys were removed aseptically from each mouse and were combined in a sterile tube. An aliquot (2 mL) of sterile PBS was added to each tube and the contents homogenized with a tissue homogenizer (Polytron 3100). Serial dilutions of the tissue homogenates were conducted and 0.1 mL aliquots were spread on SDA plates and the plates incubated at 35° C. overnight. The CFU/kidneys were determined from colony counts. Data were analyzed using one-way ANOVA with either the Tukey-Kramer Multiple Comparisons Test or Dunnett Test (GraphPad InStat version 3.06, GraphPad Software, San Diego, Calif.).
The data reported below are the average of four mice. Each run included a separate control and each is tabulated separately.

Row | Structure (SMILES) | log reduction at 0.5 mg/kg (Fourth run, IP 0.5 mg/kg) | log reduction at 1.5 mg/kg (Fourth run, IP 1.5 mg/kg) | Mean log10 CFU/kidneys (±SEM) (Fourth run, IP 0.5 mg/kg) [log10 CFU/kidneys] | Mean log10 CFU/kidneys (±SEM) (Fourth run, IP 1.5 mg/kg) [log10 CFU/kidneys] | overall performance in reducing C. albicans CFUs in the kidneys of the mice | log reduction at 0.5 mg/kg (Third run, IP 0.5 mg/kg) | log reduction at 1.5 mg/kg (Third run, IP 1.5 mg/kg) | log reduction at 4.5 mg/kg (Third run, IP 4.5 mg/kg) | Mean log10 CFU/kidneys (±SEM) (Third run, IP 0.5 mg/kg) [log10 CFU/kidneys] | Mean log10 CFU/kidneys (±SEM) (Third run, IP 1.5 mg/kg) [log10 CFU/kidneys] | Mean log10 CFU/kidneys (±SEM) (Third run, IP 4.5 mg/kg) [log10 CFU/kidneys] | also measured
1 | CCCCCOc1ccc(-c2ccc(-c3ccc(C(=O)N[C@H]4C[C@@H](O)C(OCCNCCN)NC(=O)C5[C@@H](O)[C@@H](C)CN5C(=O)C([C@@H](C)O)NC(=O)C([C@H](O)[C@@H](O)c5ccc(O)cc5)NC(=O)C5C[C@@H](O)CN5C(=O)C([C@@H](C)O)NC4=O)cc3)cc2)cc1 (stereo partly shown) [compound 7] | 0.78 | 3.55 | 4.33 ± 0.17 | 1.55 ± 0.19 | performed strongly | – | – | – | – | – | – | –
2 | CCCCCOc1ccc(-c2ccc(-c3ccc(C(=O)N[C@H]4C[C@@H](O)C(NCCOCCOCCOCCN)NC(=O)C5[C@@H](O)[C@@H](C)CN5C(=O)C([C@@H](C)O)NC(=O)C([C@H](O)[C@@H](O)c5ccc(O)cc5)NC(=O)C5C[C@@H](O)CC5C(=O)C([C@@H](C)O)NC4=O)cc3)cc2)cc1 (stereo partly shown) [compound 14] | 0.37 | 0.31 | 4.74 ± 0.17 | 4.80 ± 0.34 | performed poorly | – | – | – | – | – | – | –
3 | CCCCCOc1ccc(-c2ccc(-c3ccc(C(=O)N[C@H]4C[C@@H](O)C(OCCN(C)C)NC(=O)C5[C@@H](O)[C@@H](C)CN5C(=O)C([C@@H](C)O)NC(=O)C([C@H](O)[C@@H](O)c5ccc(O)cc5)NC(=O)C5C[C@@H](O)CN5C(=O)C([C@@H](C)O)NC4=O)cc3)cc2)cc1 (stereo partly shown) [compound 2] | – | – | – | – | performed moderately | – | – | – | – | – | – | log reduction at 5 mg/kg: 3.6; Mean log10 CFU/kidneys (±SD): 1.60 ± 0.35 log10 CFU/kidneys
4 | CCCCCOc1ccc(-c2ccc(-c3ccc(C(=O)N[C@H]4C[C@@H](O)C(NCCOC)NC(=O)C5[C@@H](O)[C@@H](C)CN5C(=O)C([C@@H](C)O)NC(=O)C([C@H](O)[C@@H](O)c5ccc(O)cc5)NC(=O)C5C[C@@H](O)CN5C(=O)C([C@@H](C)O)NC4=O)cc3)cc2)cc1 (stereo partly shown) [compound 8] | 0.32 | 1.66 | 4.78 ± 0.15 | 3.45 ± 0.37 | performed poorly | – | – | – | – | – | – | –
5 | CCC(C)CC(C)CCCCCCCCC(=O)N[C@H]1C[C@@H](O)C(NCCNCCO)NC(=O)C2[C@@H](O)CCN2C(=O)C([C@H](O)CCN)NC(=O)C([C@H](O)[C@@H](O)c2ccc(O)cc2)NC(=O)C2C[C@@H](O)CC2C(=O)C([C@@H](C)O)NC1=O (stereo partly shown) [compound 21] | – | – | – | – | performed strongly | 3.63 | 4.48 | 4.03 | 1.57 ± 0.16 | 0.73 ± 0.42 | 1.17 ± 0.40 | –
6 | CCCCCOc1ccc(-c2ccc(-c3ccc(C(=O)N[C@H]4C[C@@H](O)C(NCCOCCOC)NC(=O)C5[C@@H](O)[C@@H](C)CN5C(=O)C([C@@H](C)O)NC(=O)C([C@H](O)[C@@H](O)c5ccc(O)cc5)NC(=O)C5C[C@@H](O)CN5C(=O)C([C@@H](C)O)NC4=O)cc3)cc2)cc1 (stereo partly shown) [compound 9] | 0.07 | 1.02 | 5.04 ± 0.13 | 4.09 ± 0.23 | performed poorly | – | – | – | – | – | – | –
7 | CCC(C)CC(C)CCCCCCCCC(=O)N[C@H]1C[C@@H](O)C(NCCOCCOCCN)NC(=O)C2[C@@H](O)CCN2C(=O)C([C@H](O)CCN)NC(=O)C([C@H](O)[C@@H](O)c2ccc(O)cc2)NC(=O)C2C[C@@H](O)CC2C(=O)C([C@@H](C)O)NC1=O (stereo partly shown) [compound 19] | – | – | – | – | performed strongly | 2.19 | 3.47 | 4.03 | 3.01 ± 0.07 | 1.74 ± 0.18 | 1.17 ± 0.40 | –
8 | CCCCCOc1ccc(-c2ccc(-c3ccc(C(=O)N[C@H]4C[C@@H](O)C(OCCOCC[N+](C)(C)C)NC(=O)C5[C@@H](O)[C@@H](C)CN5C(=O)C([C@@H](C)O)NC(=O)C([C@H](O)[C@@H](O)c5ccc(O)cc5)NC(=O)C5C[C@@H](O)CN5C(=O)C([C@@H](C)O)NC4=O)cc3)cc2)cc1 (stereo partly shown) [compound 6] | – | – | – | – | performed strongly | – | – | – | – | – | – | log reduction at 0.5 mg/kg (Second run, IP 0.5 mg/kg): 0.13; log reduction at 1.5 mg/kg (Second run, IP 1.5 mg/kg): 3.27; log reduction at 4.5 mg/kg (Second run, IP 4.5 mg/kg): 4.87; Mean log10 CFU/kidneys (±SEM) (Second run, IP 0.5 mg/kg): 4.75 ± 0.19 log10 CFU/kidneys; Mean log10 CFU/kidneys (±SEM) (Second run, IP 1.5 mg/kg): 1.60 ± 0.17 log10 CFU/kidneys; Mean log10 CFU/kidneys (±SEM) (Second run, IP 4.5 mg/kg): 0.00 ± 0.00 log10 CFU/kidneys
9 | CCC(C)CC(C)CCCCCCCCC(=O)N[C@H]1C[C@@H](O)C(NCCOCCN)NC(=O)C2[C@@H](O)CCN2C(=O)C([C@H](O)CCN)NC(=O)C([C@H](O)[C@@H](O)c2ccc(O)cc2)NC(=O)C2C[C@@H](O)CC2C(=O)C([C@@H](C)O)NC1=O (stereo partly shown) [compound 20] | – | – | – | – | performed strongly | 3.25 | 4.48 | 3.75 | 1.96 ± 0.18 | 0.73 ± 0.42 | 1.45 ± 0.09 | –
10 | CCCCCOc1ccc(-c2ccc(-c3ccc(C(=O)N[C@H]4C[C@@H](O)C(NCCNCCN)NC(=O)C5[C@@H](O)[C@@H](C)CN5C(=O)C([C@@H](C)O)NC(=O)C([C@H](O)[C@@H](O)c5ccc(O)cc5)NC(=O)C5C[C@@H](O)CC5C(=O)C([C@@H](C)O)NC4=O)cc3)cc2)cc1 (stereo partly shown) [compound 17] | 1.64 | 3.91 | 3.46 ± 0.06 | 1.19 ± 0.12 | performed strongly | – | – | – | – | – | – | –
11 | CCCCCOc1ccc(-c2ccc(-c3ccc(C(=O)N[C@H]4C[C@@H](O)C(OCCN)NC(=O)C5[C@@H](O)[C@@H](C)CN5C(=O)C([C@@H](C)O)NC(=O)C([C@H](O)[C@@H](O)c5ccc(O)cc5)NC(=O)C5C[C@@H](O)CN5C(=O)C([C@@H](C)O)NC4=O)cc3)cc2)cc1 (stereo partly shown) [compound 4] | – | – | – | – | performed strongly | – | – | – | – | – | – | log reduction at 5 mg/kg: 4.47; log reduction at 0.5 mg/kg (Second run, IP 0.5 mg/kg): 1.5; log reduction at 4.5 mg/kg (Second run, IP 4.5 mg/kg): 4.22; Mean log10 CFU/kidneys (±SD): 0.73 ± 0.85 log10 CFU/kidneys; Mean log10 CFU/kidneys (±SEM) (Second run, IP 0.5 mg/kg): 3.38 ± 0.10 log10 CFU/kidneys; Mean log10 CFU/kidneys (±SEM) (Second run, IP 1.5 mg/kg): 0.65 ± 0.38 log10 CFU/kidneys; Mean log10 CFU/kidneys (±SEM) (Second run, IP 4.5 mg/kg): 0.65 ± 0.38 log10 CFU/kidneys
12 | CCC(C)CC(C)CCCCCCCCC(=O)N[C@H]1C[C@@H](O)C(NCCNCCN)NC(=O)C2[C@@H](O)CCN2C(=O)C([C@H](O)CCN)NC(=O)C([C@H](O)[C@@H](O)c2ccc(O)cc2)NC(=O)C2C[C@@H](O)CC2C(=O)C([C@@H](C)O)NC1=O (stereo partly shown) [compound 22] | – | – | – | – | performed strongly | 3.56 | 5.2 | 4.55 | 1.65 ± 0.16 | 0.00 ± 0.00 | 0.65 ± 0.38 | –
13 | CCCCCOc1ccc(-c2ccc(-c3ccc(C(=O)N[C@H]4C[C@@H](O)C(NCCOCCOCCN)NC(=O)C5[C@@H](O)[C@@H](C)CN5C(=O)C([C@@H](C)O)NC(=O)C([C@H](O)[C@@H](O)c5ccc(O)cc5)NC(=O)C5C[C@@H](O)CC5C(=O)C([C@@H](C)O)NC4=O)cc3)cc2)cc1 (stereo partly shown) [compound 13] | 2.29 | 2.8 | 2.81 ± 0.23 | 2.31 ± 0.19 | performed moderately | – | – | – | – | – | – | –
